In patent US20180000778A1, “SMALL MOLECULE ANTAGONISTS OF DUSP5 AND METHODS OF USE” (THE MEDICAL COLLEGE OF WISCONSIN, INC., priority 2015, published 2018):

Key:
DUSP5 PD(C263S) = target: T1, DUSP5 PD(C263S) (Homo sapiens, UniProt Q16690, C263S); assay: NMR binding assay, 2D 1H-15N HSQC titration; conditions: pH 6.8; 250 μM RR505 or 500 μM CSD3-2320
T1 construct: hexa-histidine (N); made in house; host or cells: E. coli BL21(DE3), M9 minimal media with 15NH4Cl
Protocol: NMR samples of DUSP5 PD(C263 S) were prepared for 2D 1H-15N HSQC (heteronuclear single quantum coherence) spectral titration studies. The 15N-labeled DUSP5 PD(C263) protein was concentrated using an Amicon Ultra-4 centrifugal device (Millipore) to 600 μM.
NMR samples were prepared with the following conditions for RR505: ±250 μM RR505, 250 μM DUSP5 PD (C263S), 10% D20, 50 mM potassium phosphate, 100 mM KCl, and 2 mM DTT at pH 6.8.
NMR samples were prepared with the following conditions for CSD3-2320: ±500 μM CSD3-2320, 500 μM DUSP5 PD (C263S), 10% D20, 50 mM potassium phosphate, 100 mM KCl, and 2 mM DTT at pH 6.8. NMR experiments were performed on a 500 MHz Varian NMR System using a triple resonance probe with z-axis gradients at 25° C.

DUSP5 PD(WT) = target: T2, DUSP5 PD(WT) (Homo sapiens, UniProt Q16690); assay: pNPP phosphatase activity assay with DUSP5 PD(WT); format: biochemical
T2 construct: hexa-histidine (N); made in house; host or cells: E. coli BL21(DE3)
T2 sequence (Q16690 178-319 limits assumed): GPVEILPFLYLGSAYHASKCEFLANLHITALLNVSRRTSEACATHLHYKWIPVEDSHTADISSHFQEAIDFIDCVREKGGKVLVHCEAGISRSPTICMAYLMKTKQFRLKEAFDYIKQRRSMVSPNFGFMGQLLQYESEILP
Excerpt: p-Nitrophenolphosphatase (pNPP) Activity Assay.
To measure enzymatic activity of the DUSP5 PD and the inhibitory capacity of selected molecules, an in vitro phosphatase assay was developed based on previous studies (27). In this assay, DUSP5 PD dephosphorylates the substrate p-nitrophenol phosphate (pNPP, Sigma Aldrich), yielding p-nitrophenolate, which absorbs at 405 nm with an extinction coefficient of 18,000 M-1 cm-1.
Thus, an increase in absorbance at 405 nm corresponds to the turnover of pNPP top-nitrophenolate. The assay was initially optimized in 1 mL quartz cuvettes, then was subsequently optimized for and validated in a 96-well plate format. All IC50 values were obtained using the 96-well plate assay format (see below). The assay buffer contained 100 mM Tris, 100 mM sodium chloride, 5 mM magnesium chloride, and 1 mM dithiothreitol (DTT) at pH 7.5. The pNPP substrate was prepared as a 50 mM stock by dissolving the solid substrate in assay buffer. The DUSP5 PD and pNPP were assayed initially in a cuvette (1 mL total volume) and initial velocities were fitted to the Michaelis-Menten equation (1)
where v is the initial velocity, Vmax is the maximum velocity, Km is the Michaelis constant, and [S] is the concentration of pNPP. Data were fitted using a nonlinear least squares fit to eq. 1, with GraphPad Prism 6 software.
For the 96-well plate validation assay, sodium orthovanadate (Sigma Aldrich) was utilized as a positive control for inhibition (Swarup et al., Biochem Biophys Res Commun. 1982; 107:1104-9.) at a final concentration of 10 μM, to completely block activity. All plate assays were performed in standard 96-well clear bottom plates (Thermo Scientific Nunc) with a total assay volume of 200 μL, using a SpectraMax M5 Microplate Reader (Molecular Devices). The plate validation assay was performed with replicate columns of positive control wells, negative control wells and blank wells. Blank columns contained only buffer and pNPP. Negative control (uninhibited) contained buffer, pNPP, and DUSP5 PD; and, positive control contained the same components, but also contained 10 μM sodium orthovanadate. The plate was then shaken and allowed to equilibrate in the spectrophotometer at 25° C. for 30 min. After incubation, 4 μL of a […] was dispensed into appropriate wells utilizing a single-channel pipette. This produced a final enzyme concentration of 1 μM. Before a read was taken, the plate was shaken for five seconds. The initial rate for the DUSP5 PD reaction was linear for approximately 90 min; and, the plate was kept in the spectrophotometer at 25° C. for an additional 80 min after the kinetic read. The endpoint reading was subsequently taken at 90 min after initiation of reaction. Slopes from the kinetic read, as well as single-point absorbance values at the 90-minute endpoint read, were then averaged. For blank wells and positive control wells, both slope values (continuous assay) and single point absorbance values (fixed time assay) were approximately zero, as expected. Standard deviations were calculated and a Z′ value (Zhang et al., J Biomol Screening. 1999; 4:67-73) subsequently determined using the following equation: […]
IC50 values were obtained using the assay described above, in 96 well plates. The maximum inhibitor concentration screened in any plate was […] and the minimum was 1.5 μM. The IC50 plate was designed so that the first column of wells served as blanks, with wells containing only buffer and substrate. The second column of wells functioned as the plate negative control, with each well containing buffer, substrate and enzyme. The remaining wells in the plate contained buffer, substrate, enzyme, and varying amounts of inhibitor, with inhibitor concentration increasing from left to right across the plate. Data points were collected in triplicate, and inhibitor concentrations were chosen to provide data equally spread on a logarithmic scale. […]

T1 sequence (Q16690 178-319 C263S limits assumed): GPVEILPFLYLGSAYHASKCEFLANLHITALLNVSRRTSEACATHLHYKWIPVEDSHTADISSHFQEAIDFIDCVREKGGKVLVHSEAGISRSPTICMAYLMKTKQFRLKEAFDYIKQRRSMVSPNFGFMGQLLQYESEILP

Row | SMILES | binding by HSQC crosspeak changes (DUSP5 PD(C263S)) | IC50's, range in words (DUSP5 PD(WT); enzyme inhibition (FIG. 3)) | IC50 (DUSP5 PD(WT); pNPP assay with DUSP5 PD) [mM] | IC50 (DUSP5 PD(WT); phosphatase domain alone, pNPP) [mM]
1 | O=S(=O)([O-])c1ccc2[nH]c3c(S(=O)(=O)[O-])cc(S(=O)(=O)[O-])cc3c2c1.[Na+].[Na+].[Na+] [RR505, Carbazole-1,3,6-trisulfonic acid, Trisodium Salt] | direct binding | mM range | – | –
2 | O=S(=O)(O)c1cc(O)c2c(S(=O)(=O)O)cccc2c1 [RR527] | direct binding | – | 0.484 | 33
